Test results: ChEMBL document CHEMBL1146669, “The development of potent non-peptidic PTP-1B inhibitors” (Bioorg Med Chem Lett, 2004); call rule not given here
“And” between values parts separate entries of the source, which are not always exact repeats. Identical values can stand only once.

Assays:
[1] = target: T1, Receptor-type tyrosine-protein phosphatase C (Homo sapiens, UniProt P08575); assay: In vitro inhibitory activity against CD45 protein-tyrosine phosphatase
T1 sequence (P08575 whole entry): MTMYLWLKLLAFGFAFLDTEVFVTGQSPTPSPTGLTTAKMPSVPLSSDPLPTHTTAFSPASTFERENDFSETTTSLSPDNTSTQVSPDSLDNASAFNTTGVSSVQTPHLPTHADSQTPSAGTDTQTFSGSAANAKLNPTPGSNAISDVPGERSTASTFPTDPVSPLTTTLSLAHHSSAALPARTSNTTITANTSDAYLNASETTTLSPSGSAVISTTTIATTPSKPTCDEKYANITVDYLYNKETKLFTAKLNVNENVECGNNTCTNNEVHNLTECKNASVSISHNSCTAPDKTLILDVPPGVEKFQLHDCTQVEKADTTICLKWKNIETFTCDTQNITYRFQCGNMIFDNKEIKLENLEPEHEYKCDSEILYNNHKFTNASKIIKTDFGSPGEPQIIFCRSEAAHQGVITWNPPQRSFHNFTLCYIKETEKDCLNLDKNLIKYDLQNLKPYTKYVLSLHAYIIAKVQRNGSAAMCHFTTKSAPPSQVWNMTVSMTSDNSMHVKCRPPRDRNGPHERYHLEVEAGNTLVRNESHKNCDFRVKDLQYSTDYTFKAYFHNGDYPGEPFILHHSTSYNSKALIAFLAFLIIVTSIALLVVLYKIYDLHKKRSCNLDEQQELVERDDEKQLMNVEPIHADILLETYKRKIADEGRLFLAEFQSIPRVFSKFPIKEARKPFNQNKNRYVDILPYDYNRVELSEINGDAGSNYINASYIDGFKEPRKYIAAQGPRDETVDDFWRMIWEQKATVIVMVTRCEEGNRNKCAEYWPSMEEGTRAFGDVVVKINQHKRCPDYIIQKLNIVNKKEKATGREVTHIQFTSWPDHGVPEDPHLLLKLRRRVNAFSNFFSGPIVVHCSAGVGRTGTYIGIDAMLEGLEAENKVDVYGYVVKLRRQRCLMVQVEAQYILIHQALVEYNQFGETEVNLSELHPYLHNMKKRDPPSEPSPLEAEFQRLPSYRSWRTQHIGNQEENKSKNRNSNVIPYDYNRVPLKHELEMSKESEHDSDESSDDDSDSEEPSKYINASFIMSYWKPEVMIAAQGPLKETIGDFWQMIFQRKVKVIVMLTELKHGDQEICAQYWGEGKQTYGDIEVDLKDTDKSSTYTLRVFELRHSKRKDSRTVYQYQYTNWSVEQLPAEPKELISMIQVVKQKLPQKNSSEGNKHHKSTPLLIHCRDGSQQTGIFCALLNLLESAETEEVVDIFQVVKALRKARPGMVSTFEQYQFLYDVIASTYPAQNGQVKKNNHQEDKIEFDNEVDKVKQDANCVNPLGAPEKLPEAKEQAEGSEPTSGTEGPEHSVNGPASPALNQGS

[2] = target: T2, Tyrosine-protein phosphatase non-receptor type 1 (Homo sapiens, UniProt P18031); assay: In vitro inhibitory activity against protein tyrosine phosphatase 1B (PTP1B) was determined in fluorescein diphosphate (FDP) assay
T2 sequence (P18031 whole entry): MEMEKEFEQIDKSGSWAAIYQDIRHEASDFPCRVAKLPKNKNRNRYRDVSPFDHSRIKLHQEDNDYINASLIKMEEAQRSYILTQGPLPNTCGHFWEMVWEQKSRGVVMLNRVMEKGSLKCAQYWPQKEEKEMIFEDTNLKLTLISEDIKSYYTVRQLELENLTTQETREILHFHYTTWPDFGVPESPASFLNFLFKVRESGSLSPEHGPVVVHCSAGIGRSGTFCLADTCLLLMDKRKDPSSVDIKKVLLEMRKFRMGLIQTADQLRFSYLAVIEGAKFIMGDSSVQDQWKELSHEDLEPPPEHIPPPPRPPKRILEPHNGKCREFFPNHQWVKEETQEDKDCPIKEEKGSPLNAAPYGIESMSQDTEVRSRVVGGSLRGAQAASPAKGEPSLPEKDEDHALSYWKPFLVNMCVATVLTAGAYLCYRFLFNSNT

[3] = target: T2, Tyrosine-protein phosphatase non-receptor type 1; assay: In vitro inhibitory activity against Protein tyrosine phosphatase 1B (PTP1B) over-expressed in intact Sf9 cell assay
[4] = Half life in ob/ob mice; type: ADME, organism-based; details: mouse, in vivo
[5] = Oral bioavailability in rat; type: ADME, organism-based; details: in vivo
[6] = Maximal concentration in rat was determined; type: ADME, organism-based; details: in vivo
[7] = In vitro inhibitory activity against Protein tyrosine phosphatase 1B (PTP1B) over-expressed in intact Sf9 cell assay; NA denotes not active

| SMILES | IC50 [1] [µM] | IC50 [2] | IC50 [3] | half-life [4] [min] | bioavailability [5] [%] | Cmax [6] [µM] | IC50 [7] |
| --- | --- | --- | --- | --- | --- | --- | --- |
| CC(=O)NS(=O)(=O)c1ccc(CC(Cc2ccc(C(F)(F)P(=O)(O)O)cc2)(C(=O)OCc2ccccc2)C(=O)OCc2ccccc2)cc1 | 25 | 0.09 µM | 1.7 µM | – | – | – | – |
| O=C(c1ccccc1)C(Cc1ccc(C(F)(F)P(=O)(O)O)cc1)(Cc1ccc(C(F)(F)P(=O)(O)O)cc1)c1ccccc1 | > 50 | 0.06 µM and 0.19 µM | 0.58 µM and 1.5 µM | – | – | – | – |
| O=C(c1ccccc1)C(Cc1ccc(C(F)(F)P(=O)(O)O)cc1)c1ccccc1 (configuration not stated) | > 50 | 2 µM | 16 µM | – | – | – | – |
| O=C(OCc1ccccc1)C(Cc1ccc(C(F)(F)P(=O)(O)O)cc1)(Cc1ccc(C(F)(F)P(=O)(O)O)cc1)C(=O)OCc1ccccc1 | 19 | 0.06 µM | 0.54 µM | – | – | – | – |
| CS(=O)(=O)c1ccc(CC(Cc2ccc(C(F)(F)P(=O)(O)O)cc2)(C(=O)OCc2ccccc2)C(=O)OCc2ccccc2)cc1 | > 50 | 0.94 µM | 7.2 µM | – | – | – | – |
| O=P(O)(O)C(F)(F)c1ccc(CC(Cc2ccc(C(F)(F)P(=O)(O)O)cc2)(OCc2ccccc2)OCc2ccccc2)cc1 | > 50 | 0.16 µM | 1.3 µM | – | – | – | – |
| O=C(c1ccccc1)C(Cc1ccc(C(F)(F)P(=O)(O)O)c(Cl)c1)c1ccccc1 (configuration not stated) | > 50 | 0.36 µM | 2.4 µM | – | – | – | – |
| O=C(O)c1ccc(CC(Cc2ccc(C(F)(F)P(=O)(O)O)cc2)(C(=O)c2ccccc2)c2ccccc2)cc1 (configuration not stated) | > 50 | 0.8 µM | 6.63 µM | – | – | – | – |
| COC(=O)C(Cc1ccc(C(F)(F)P(=O)(O)O)cc1)(Cc1ccc(C(F)(F)P(=O)(O)O)cc1)C(=O)OCc1ccccc1 | > 50 | 0.19 µM | 1 µM | < 30 | – | – | – |
| O=C(c1ccccc1)C(Cc1ccc(C(F)(F)P(=O)(O)O)c(Br)c1)c1ccccc1 (configuration not stated) | > 50 | – | 1.22 µM | – | 13 | 35 | – |
| CC(C)OC(=O)C(Cc1ccc(C(F)(F)P(=O)(O)O)cc1)(Cc1ccc(C(F)(F)P(=O)(O)O)cc1)C(=O)OC(C)C | > 50 | 0.11 µM | 1.65 µM | – | – | – | – |
| O=C(OCc1ccccc1)C(Cc1ccc(C(F)(F)C(=O)O)cc1)(Cc1ccc(C(F)(F)P(=O)(O)O)cc1)C(=O)OCc1ccccc1 | > 50 | 0.04 µM | 1.9 µM | – | – | – | – |
| O=C(c1ccccc1)C(Cc1ccc(C(F)(F)P(=O)(O)O)c(-c2ccccc2)c1)c1ccccc1 (configuration not stated) | > 50 | 16 µM | – | – | – | – | Not Active |
| COC(=O)C(Cc1ccc(C(F)(F)P(=O)(O)O)cc1)(Cc1ccc(C(F)(F)P(=O)(O)O)cc1)C(=O)O | > 50 | 0.39 µM | 3.8 µM | – | – | – | – |
| O=C(c1ccccc1)C(C/C=C/c1ccccc1)(Cc1ccc(C(F)(F)P(=O)(O)O)cc1)c1ccccc1 (configuration not stated) | 5.5 | 0.19 µM | 2 µM | – | – | – | – |
